The term pIC50 denotes the negative decadic logarithm of the IC50, by convention in mol/L.

Series [1] concerns LoVo cells. Description: Inhibition of the proliferation of tumor cells (MTT test), LoVo. Type of series: cell-based, human. Conditions: Homo sapiens, Table 2, colonic carcinoma, no uridine, read-out: MTT Test IC50. On the procedure: (§1) Inhibition of the proliferation of tumor cells (MTT test)
(§2) 1×10^4 cells per well are inoculated into a 96-well microtiter plate. After 24 h, the test substances are added at various concentrations. Each group consists of 4 wells, the control is only incubated with medium. After 65 h, 50 μl of MTT (3-(4,5-dimethyl-2-thiazolyl)-2,5-diphenyl-2H-tetrazolium bromide; 2.5 mg/ml in PBS) are added and, after 7 h, the supernatant is removed. The color formed by the living cells is dissolved by addition of 100 μl of dimethyl sulfoxide/well. The extinction is measured at 492 nm for each well with the aid of a Multiscan photometer 340 CC (Flow). The cell lines used are obtainable as follows from the American Type Culture Collection: HUV-EC-C is ATCC CRL 1730; A-172 is ATCC CRL 1620; L 1210 is ATCC CCL 219; LoVo is ATCC CCL 229; C 6 is ATCC CCL 107 and a rat glioblastoma cell line.
(§3) The mean value is formed from the 4 wells of a group and the IC50 values are calculated from the dose-response curve using the Software 3.0 (Erithacus Software Ltd.).
A general note: Formazan colour is commonly taken as a measure of viable cells.

The subject of a further series is HUV-EC-C. The experiment in a line: Inhibition of proliferation (MTT test), HUV-EC-C / HUVEC endothelial cells. The conditions noted are these: Homo sapiens, Endothelial cell, Table 2; HUV-EC-C, endothelial cell; read-out: MTT Test IC50. It counts as cell-based, human. As for the experimental part:
as §1, §2, §3

The next series deals with A-172. Description: Inhibition of the proliferation of tumor cells (MTT test), A-172. Type of series: cell-based, human. The conditions noted are these: Homo sapiens, A 172, Table 2; A-172, glioblastoma; read-out: MTT Test IC50. As for the experimental part:
as §1, §2, §3

In another series the test system is L1210. The experiment in a line: Inhibition of the proliferation of tumor cells (MTT test), L1210. Conditions: Table 2; L1210, leukemia (mouse). Type of series: cell-based. On the procedure: as §1, §2, §3
A further series has as its system C 6. Description: Inhibition of the proliferation of tumor cells (MTT test), C 6. Type of series: cell-based, rat. The conditions noted are these: Rattus norvegicus, C6, Table 2; C 6, rat glioblastoma; read-out: MTT Test IC50. On the procedure:
as §1, §2, §3

Series [2] relates to LoVo cells. The experiment in a line: MTT test on LoVo cells with added uridine. It counts as cell-based, human. The conditions noted are these: for pIC50: Homo sapiens, LoVo, Table 3. As for the experimental part: as §2, §3
The procedure is as in Example 6; uridine is additionally added to the batches.

In series [3] the test system is pyrimidine and purine nucleotides. The conditions noted are these: cited from earlier work.
The test system of another series is in vitro cell lines. The conditions noted are these: Peters et al., 1987; cited from earlier work.
A further series deals with plasma uridine. The conditions noted are these: clinical investigations, cited from earlier work.

pIC50: −log10 of the molar value.

`Cc1c(-c2ccc(-c3ccccc3F)cc2)nc2ccc(F)cc2c1C(=O)O` [Brequinar, reference compound]: the pIC50 with LoVo cells [1] was 6.41; in the series on HUV-EC-C, 5.03; in the series on A-172, 6.70; with L1210, 6.00; with C 6 it was 5.05; in the series on LoVo cells [2] (uridine 0 μM) it was 6.41. The same compound showed a pIC50 with LoVo cells [2] (uridine 1000 μM) of 3.89. In the series on LoVo cells [2] (MTT test, in words), the “change of the IC50 value on the LoVo cell line on addition of increasing amounts of uridine” value is reported as “massive increase in the IC50 value”. Besides, the depletion of nucleotides entry in [3] (Schwartsmann et al., 1988) is “depletion of pyrimidine ribo- and deoxyribonukleotides, but not of purine nucleotides”. The “depletion of dTTP and dCTP” value in series [3] (relative to UTP and CTP, uridine addition) was “proportional to that of UTP and CTP and can be prevented by the addition of uridine”. Besides, the “inhibition of growth of in vitro cell lines, reversal by nucleosides” value in the series with in vitro cell lines was “can be abolished by addition of uridine or cytidine, but not by deoxythymidine or deoxycytidine”. In the series with plasma uridine (Peters et al., 1988), the plasma uridine values entry was “significantly lowers the plasma uridine values”. The “correlation of in vivo uridine level effects with bone marrow and gastrointestinal tract toxicity” value in the series on plasma uridine is “correlated with the bone marrow and gastrointestinal tract toxicity”.

The record behind these values is patent US5886033A, “Use of isoxazole and crotonamide derivatives for the treatment of carcinomatous disorders” (Hoechst Aktiengesellschaft, priority 1995, dated 1999).
